Results as given in article PMC7661526, “Antibiofilm effects of N,O-acetals derived from 2-amino-1,4-naphthoquinone are associated with downregulation of important global virulence regulators in methicillin-resistant Staphylococcus aureus” (Scientific Reports, 2020).
≈ marks a conversion by molar mass, not a printed value.

Columns and labels:
S. aureus ATCC 25923 = test: Disk diffusion test; format: cell-based, Staphylococcus aureus
Description: Strain representatives of six globally spread clones/lineages of MRSA were used in this study to test the antimicrobial activity of the N,O-acetal derivatives against MRSA: NY/Japan-USA100/ST5-SCCmecII (strain CR15-071), USA300/ST8-SCCmecIV (strain USA300-0114), USA400/ST1-SCCmecIV (strain USA400-0051), Brazilian epidemic clone-BEC/ST239-SCCmecIII (strain BMB9393), pediatric clone-USA800/ST5-SCCmecIV (strain USA800-0179), and OSPC-USA1100/ST30-SCCmecIV (strain 07-040). The S. aureus ATCC 25923 was used as a control for the experiment of drug susceptibility. […] For biofilm production, tryptic soy broth (TSB; BD, Franklin Lakes, NJ, USA) was supplemented with 1% (w/v) glucose (TSB-Glu). Tryptic soy agar (TSA; BD) was used for bacterial growth. The Mueller-Hinton broth (MHB; BD) and Mueller-Hinton agar (MHA; BD) was used for susceptibility tests. All strains were maintained in 10% (v/v) glycerol stocks and stored at − 80 °C.
The antibacterial activity of 6a and its derivatives 7a, 7b, and 7c was tested as previously described using paper disks impregnated with each compound[13]. The derivatives were also analyzed quantitatively using microdilution assays in 96-well inert polystyrene microtiter plates (Nuclon; Nalge Nunc International, Rochester, NY, USA) to determine the minimal inhibitory concentration (MIC)[14]. Biological control, as well as growth conditions, were performed following CLSI recommendation[15],[16]. […] Controls were also performed using 2% (v/v) DMSO only.

[1] = system: MRSA ST5-SCCmecII (USA100); test: Disk diffusion test; format: cell-based, Staphylococcus aureus
[2] = system: MRSA ST30-SCCmecIV (USA1100); test: Disk diffusion test; format: cell-based, Staphylococcus aureus
Vero cell line = test: Cytotoxicity assay (MTT); conditions: Vero cells, 24 h, MTT
Description: (§1) Plates were incubated for 1 h, the supernatant again removed, and 200 µL dimethyl sulfoxide (DMSO) were added to each well to dissolve the formazan crystals for 10 min. Absorbance was measured at 570 nm using an ELISA reader (Thermo Plate, TP-READER, Thermo Fisher Scientific). […] The selectivity index (SI) was calculated as follows: SI (µg/mL) = CC50/MIC[17]. Three independent experiments were performed in triplicate. Controls were performed using 2% (v/v) DMSO only.

human erythrocytes = test: Hemocompatibility assay; conditions: highest concentration evaluated (300 µg/mL), 3 h at 37 °C
Description: (§2) Erythrocytes were collected from three human volunteers in a citrate tube and washed three times (3×) with PBS (pH 7.4). All derivatives were incubated with the PBS-erythrocyte suspension for 3 h at 37 °C. The hemolysis with the release of hemoglobin was quantified by the spectrophotometric reading of the supernatant at 545 nm. Hemolysis less than 10% represented hemocompatibility and non-toxicity against erythrocyte membranes. For the positive control, the human erythrocytes were lysed with 1% (v/v) Triton X-100. The negative control was performed with 1% (v/v) DMSO only (final concentration). […] All methods were carried out in accordance with relevant guidelines and regulations. In addition, informed consent was obtained from all volunteers. Three independent experiments were performed in triplicate.

spa = test: Real-time RT-qPCR of biofilm-associated genes; format: cell-based, Staphylococcus aureus
psmα3 = test: Real-time RT-qPCR of biofilm-associated genes; format: cell-based, Staphylococcus aureus
Cytotoxicity assay (MTT) = conditions: African green monkey, Vero cell monolayers
Description: as §1

in vitro = conditions: human, pH 7.4
Description: as §2

[3] = system: MRSA strain CR15-071 (USA100) cells persistent to vancomycin; test: Vancomycin-persistent cells, high bacterial load on TSA plates; format: cell-based, Staphylococcus aureus; conditions: 1MIC derivative (128 µg/mL) plus vancomycin 4MIC (8 µg/mL), ~10^9 CFU/ml
Description: For this test, we choose the MRSA strain CR15-071 representative of the ST5-SCCmecII lineage (NY/Japan-USA100 clone), since this MRSA has replaced the ST239-SCCmecIII (the Brazilian clone) in this country, and is now the most frequent MRSA lineage in Brazilian hospitals. […]. The plates were incubated at 37 °C/24 h before being examined. […]. Bacterial growth was determined by removing persistent cells from the plates and determining UFC/ml. Controls were also performed using 2% (v/v) DMSO only. Three independent experiments were performed in triplicate.

| SMILES | Inhibition zone (S. aureus ATCC 25923) | Inhibition zone [1] | Inhibition zone [2] | CC50 (Vero cell line) | Hemolysis, maximum values (human erythrocytes) | Reduction of spa expression (spa) | Reduction of psmα3 expression (psmα3) | CC50 at 24 h (Cytotoxicity assay (MTT)) | hemolysis at 3 h, 300 µg/mL (in vitro) | Reduction in the total of vancomycin-persistent cells [3] |
| --- | --- | --- | --- | --- | --- | --- | --- | --- | --- | --- |
| C#CCOCNC1=CC(=O)c2ccccc2C1=O [7c, 2-(propynyloxymethyl)-amino-1,4-naphthoquinone] | 14±3.4 mm | 12±1.5 mm | 15±0.8 mm | 20.15 ± 2.11 µg/mL (≈ 83.5 µM) | 1.5 ± 0.5% | 74.82 ± 4.9% | 87.73 ± 4.3% |  |  |  |
| CCOCNC1=CC(=O)c2ccccc2C1=O [7b, 2-(ethoxymethyl)-amino-1,4-naphthoquinone] | 12.5±3.5 mm | 13±2.0 mm | 13±1.0 mm |  |  | 95.4 ± 0.9% | 97.75 ± 0.6% | 219.9 ± 1.87 µg/mL (≈ 951 µM) | 2.7 ± 0.3% | complete inhibition of persistent cells |
